Assays:
Hs 729 = assay: OncoPanel cell proliferation assay, Hs 729; type: cell-based, human; details: Hs 729
Method: (§1) Cells were grown in RPMI 1640, 10% FBS, 2 mM L-alanyl-L-glutamine, 1 mM Na pyruvate, or a special medium. Cells were seeded into 384-well plates and incubated in a humidified atmosphere of 5% CO2 at 37° C. Compounds were added the day following cell seeding. At the same time, a time zero untreated cell plate was generated. After a 3-day incubation period, cells were fixed and stained to allow fluorescence imaging of nuclei. Compounds (1 mM stock solutions) were serially diluted in half-log steps from the highest test concentration ([…]), and assayed over 10 concentrations with a maximum assay concentration of 0.1% DMSO. Automated fluorescence microscopy was carried out using a Molecular Devices ImageXpress Micro XL high-content imager, and images were collected with a 4× objective. 16-bit TIFF images were acquired and analyzed with MetaXpress 5.1.0.41 software.
(§2) Cell proliferation was measured by the fluorescence intensity of an incorporated nuclear dye. The output is referred to as the relative cell count, where the measured nuclear intensity is transformed to percent of control (POC) using the following formula: […]
(§3) Cellular response parameters were calculated using nonlinear regression to a sigmoidal single-site dose response model:
(§4) Where y is a response measured at concentration x, A and B are the lower and upper limits of the response, C is the concentration at the response midpoint (EC50), and D is the Hill Slope (Ref. 1).
(§5) EC50 is the test compound concentration at the curve inflection point or half the effective response (parameter C of the fitted curve solution). GI50 is the concentration needed to reduce the observed growth by half (midway between the curve maximum and the time zero value). “Cell Count Activity Area” is an estimate of the integrated area above the curve (Barretina, et al. The Cancer Cell Line Encyclopedia enables predictive modelling of anticancer drug sensitivity. Nature 483: 603-607). […] In rare instances, values <0 or >10 may be observed. […] Curve-fitting, calculations, and report generation was performed using a custom data reduction engine and MathIQ based software (AIM).

SHP-77 = assay: OncoPanel cell proliferation assay, SHP-77; details: for Relative cell count (%) Mean: SHP-77
Method: (§6) Cells were seeded into 384-well plates and incubated in a humidified atmosphere of 5% CO2 at 37° C. Compounds were added the day following cell seeding. At the same time, a time zero untreated cell plate was generated. After a 3-day incubation period, cells were fixed and stained to allow fluorescence imaging of nuclei. Compounds (1 mM stock solutions) were serially diluted in half-log steps from the highest test concentration (1 micromol), and assayed over 10 concentrations with a maximum assay concentration of 0.1% DMSO. Automated fluorescence microscopy was carried out using a Molecular Devices ImageXpress Micro XL high-content imager, and images were collected with a 4× objective. 16-bit TIFF images were acquired and analyzed with MetaXpress 5.1.0.41 software.
(§7) GI50 is the concentration needed to reduce the observed growth by half (midway between the curve maximum and the time zero value). […] In rare instances, values <0 or >10 may be observed. […] Curve-fitting, calculations, and report generation was performed using a custom data reduction engine and MathIQ based software (AIM).

G-402 = assay: OncoPanel cell proliferation assay, G-402; type: cell-based, human; details: for Relative cell count (%) Mean: G-402
Method: as §1, §2, §3, §4, §5

MES-SA = assay: OncoPanel cell proliferation assay, MES-SA; type: cell-based, human
Method: as §1, §2, §3, §4, §5

CEM-C1 = assay: OncoPanel cell proliferation assay, CEM-C1; type: cell-based, human; details: for Relative cell count (%) Mean: CEM-C1
Method: as §1, §2, §3, §4, §5

CML-T1 = assay: OncoPanel cell proliferation assay, CML-T1; type: cell-based, human; details: for Relative cell count (%) Mean: CML-T1
Method: as §1, §2, §3, §4, §5

SK-N-AS = assay: OncoPanel cell proliferation assay, SK-N-AS; type: cell-based, human
Method: as §1, §2, §3, §4, §5

SK-UT-1 = assay: OncoPanel cell proliferation assay, SK-UT-1; details: for Relative cell count (%) Mean: SK-UT-1
Method: as §6, §7

[1] = Homo sapiens, 72 h, 3-day incubation, read-out: Cell Count EC50
[2] = Homo sapiens, 72 h, 3-day incubation, read-out: Cell Count GI50
[3] = Homo sapiens, 72 h, 3-day incubation, read-out: Cell Count IC50

Which results are given for `CO[C@H]1C[C@@H]2CC[C@@H](C)[C@@](O)(O2)C(=O)C(=O)N2CCCC[C@H]2C(=O)O[C@H]([C@H](C)C[C@@H]2C[C@@H]3C[C@H]2C[C@H]3O)CC(=O)[C@H](C)/C=C(\C)[C@@H](O)[C@@H](OC)C(=O)[C@H](C)C[C@H](C)/C=C/C=C/C=C/1C` [Formula I, 37R-hydroxynorbornylrapamycin]?
Relative cell count (%) Mean (Hs 729; 1.00E−02 microM): 79.6%; Relative cell count (%) Mean (Hs 729; 1.00E−03 microM): 87.3%; Relative cell count (%) Mean (Hs 729; 1.01E−04 microM): 95.7%; Relative cell count (%) Mean (Hs 729; 3.16E−01 microM): 63.1%; Relative cell count (%) Mean (Hs 729; 3.17E−02 microM): 76.9%; Relative cell count (%) Mean (Hs 729; 3.17E−03 microM): 79.1%; Relative cell count (%) Mean (Hs 729; 3.18E−04 microM): 87.7%; Relative cell count (%) Mean (Hs 729; 3.18E−05 microM): 91.5%; EC50 (SHP-77; Homo sapiens, SHP77, 72 h, read-out: Cell Count EC50): 309 nM; GI50 (SHP-77; Homo sapiens, SHP77, 72 h, read-out: Cell Count GI50): > 1000 nM; IC50 (SHP-77; Homo sapiens, SHP77, 72 h, read-out: Cell Count IC50): > 1000 nM; Cell Count Activity Area (SHP-77; SHP-77, scale 0-10): 1.18; Relative cell count (%) Mean (SHP-77; 1.00E+00 microM): 71.6%; Relative cell count (%) Mean (SHP-77; 1.00E−01 microM): 83.4%; Relative cell count (%) Mean (SHP-77; 1.00E−02 microM): 94.0%; Relative cell count (%) Mean (SHP-77; 1.00E−03 microM): 96.5%; Relative cell count (%) Mean (SHP-77; 1.01E−04 microM): 98.0%; Relative cell count (%) Mean (SHP-77; 3.16E−01 microM): 75.9%; Relative cell count (%) Mean (SHP-77; 3.17E−02 microM): 84.9%; Relative cell count (%) Mean (SHP-77; 3.17E−03 microM): 89.5%; Relative cell count (%) Mean (SHP-77; 3.18E−04 microM): 101.7%; Relative cell count (%) Mean (SHP-77; 3.18E−05 microM): 99.1%; Cell Count Activity Area (G-402; G-402, scale 0-10): 4.95; Relative cell count (%) Mean (G-402; 1.00E+00 microM): 31.5%; Relative cell count (%) Mean (G-402; 1.00E−01 microM): 37.2%; Relative cell count (%) Mean (G-402; 1.00E−02 microM): 41.4%; Relative cell count (%) Mean (G-402; 1.00E−03 microM): 49.2%; Relative cell count (%) Mean (G-402; 1.01E−04 microM): 70.9%; Relative cell count (%) Mean (G-402; 3.16E−01 microM): 34.9%; Relative cell count (%) Mean (G-402; 3.17E−02 microM): 46.6%; Relative cell count (%) Mean (G-402; 3.17E−03 microM): 48.8%; Relative cell count (%) Mean (G-402; 3.18E−04 microM): 54.9%; Relative cell count (%) Mean (G-402; 3.18E−05 microM): 89.9%; EC50 (G-402; Homo sapiens, 72 h, G-402, 3-day incubation, read-out: Cell Count EC50): 0.133 nM; GI50 (G-402; Homo sapiens, 72 h, G-402, 3-day incubation, read-out: Cell Count GI50): 0.332 nM; IC50 (G-402; Homo sapiens, 72 h, G-402, 3-day incubation, read-out: Cell Count IC50): 0.956 nM; Relative cell count (%) Mean (MES-SA; 1.00E+00 microM): 27.9%; Relative cell count (%) Mean (MES-SA; 1.00E−01 microM): 28.9%; Relative cell count (%) Mean (MES-SA; 1.00E−02 microM): 32.0%; Relative cell count (%) Mean (MES-SA; 1.00E−03 microM): 45.0%; Relative cell count (%) Mean (MES-SA; 1.01E−04 microM): 93.8%; Relative cell count (%) Mean (MES-SA; 3.16E−01 microM): 26.8%; Relative cell count (%) Mean (MES-SA; 3.17E−02 microM): 28.6%; Relative cell count (%) Mean (MES-SA; 3.17E−03 microM): 37.3%; Relative cell count (%) Mean (MES-SA; 3.18E−04 microM): 64.3%; Relative cell count (%) Mean (MES-SA; 3.18E−05 microM): 98.1%; EC50 (MES-SA; [1]): 0.322 nM; GI50 (MES-SA; [2]): 0.495 nM; IC50 (MES-SA; [3]): 0.644 nM; Cell Count Activity Area (MES-SA; scale 0-10): 5.42; Cell Count Activity Area (CEM-C1; CEM-C1, scale 0-10): 3.52; Relative cell count (%) Mean (CEM-C1; 1.00E+00 microM): 47.1%; Relative cell count (%) Mean (CEM-C1; 1.00E−01 microM): 53.2%; Relative cell count (%) Mean (CEM-C1; 1.00E−02 microM): 58.4%; Relative cell count (%) Mean (CEM-C1; 1.00E−03 microM): 68.7%; Relative cell count (%) Mean (CEM-C1; 1.01E−04 microM): 90.0%; Relative cell count (%) Mean (CEM-C1; 3.16E−01 microM): 48.9%; Relative cell count (%) Mean (CEM-C1; 3.17E−02 microM): 53.1%; Relative cell count (%) Mean (CEM-C1; 3.17E−03 microM): 62.4%; Relative cell count (%) Mean (CEM-C1; 3.18E−04 microM): 72.7%; Relative cell count (%) Mean (CEM-C1; 3.18E−05 microM): 94.0%; EC50 (CEM-C1; Homo sapiens, 72 h, CEM-C1, 3-day incubation, read-out: Cell Count EC50): 0.5 nM; GI50 (CEM-C1; Homo sapiens, 72 h, CEM-C1, 3-day incubation, read-out: Cell Count GI50): 10.2 nM; IC50 (CEM-C1; Homo sapiens, 72 h, CEM-C1, 3-day incubation, read-out: Cell Count IC50): 391 nM; Cell Count Activity Area (CML-T1; CML-T1, scale 0-10): 4.54; Relative cell count (%) Mean (CML-T1; 1.00E+00 microM): 36.5%; Relative cell count (%) Mean (CML-T1; 1.00E−01 microM): 42.6%; Relative cell count (%) Mean (CML-T1; 1.00E−02 microM): 46.7%; Relative cell count (%) Mean (CML-T1; 1.00E−03 microM): 55.6%; Relative cell count (%) Mean (CML-T1; 1.01E−04 microM): 83.6%; Relative cell count (%) Mean (CML-T1; 3.16E−01 microM): 33.1%; Relative cell count (%) Mean (CML-T1; 3.17E−02 microM): 42.3%; Relative cell count (%) Mean (CML-T1; 3.17E−03 microM): 49.5%; Relative cell count (%) Mean (CML-T1; 3.18E−04 microM): 65.3%; Relative cell count (%) Mean (CML-T1; 3.18E−05 microM): 90.6%; EC50 (CML-T1; Homo sapiens, 72 h, CML-T1, 3-day incubation, read-out: Cell Count EC50): 0.317 nM; GI50 (CML-T1; Homo sapiens, 72 h, CML-T1, 3-day incubation, read-out: Cell Count GI50): 0.998 nM; IC50 (CML-T1; Homo sapiens, 72 h, CML-T1, 3-day incubation, read-out: Cell Count IC50): 2.51 nM; Relative cell count (%) Mean (SK-N-AS; 1.00E+00 microM): 45.8%; Relative cell count (%) Mean (SK-N-AS; 1.00E−01 microM): 51.0%; Relative cell count (%) Mean (SK-N-AS; 1.00E−02 microM): 53.6%; Relative cell count (%) Mean (SK-N-AS; 1.00E−03 microM): 62.3%; Relative cell count (%) Mean (SK-N-AS; 1.01E−04 microM): 84.8%; Relative cell count (%) Mean (SK-N-AS; 3.16E−01 microM): 48.3%; Relative cell count (%) Mean (SK-N-AS; 3.17E−02 microM): 52.4%; Relative cell count (%) Mean (SK-N-AS; 3.17E−03 microM): 56.7%; Relative cell count (%) Mean (SK-N-AS; 3.18E−04 microM): 77.7%; Relative cell count (%) Mean (SK-N-AS; 3.18E−05 microM): 102.1%; EC50 (SK-N-AS; [1]): 0.283 nM; GI50 (SK-N-AS; [2]): 0.826 nM; IC50 (SK-N-AS; [3]): 7.35 nM; Cell Count Activity Area (SK-N-AS; scale 0-10): 3.99; EC50 (SK-UT-1; Homo sapiens, SK-UT-1, 72 h, read-out: Cell Count EC50): 0.284 nM; GI50 (SK-UT-1; Homo sapiens, SK-UT-1, 72 h, read-out: Cell Count GI50): 2.01 nM; IC50 (SK-UT-1; Homo sapiens, SK-UT-1, 72 h, read-out: Cell Count IC50): 11.7 nM; Cell Count Activity Area (SK-UT-1; SK-UT-1, scale 0-10): 3.95; Relative cell count (%) Mean (SK-UT-1; 1.00E+00 microM): 50.0%; Relative cell count (%) Mean (SK-UT-1; 1.00E−01 microM): 57.6%; Relative cell count (%) Mean (SK-UT-1; 1.00E−02 microM): 52.2%; Relative cell count (%) Mean (SK-UT-1; 1.00E−03 microM): 72.8%; Relative cell count (%) Mean (SK-UT-1; 1.01E−04 microM): 94.8%; Relative cell count (%) Mean (SK-UT-1; 3.16E−01 microM): 48.7%; Relative cell count (%) Mean (SK-UT-1; 3.17E−02 microM): 53.1%; Relative cell count (%) Mean (SK-UT-1; 3.17E−03 microM): 57.1%; Relative cell count (%) Mean (SK-UT-1; 3.18E−04 microM): 72.6%; Relative cell count (%) Mean (SK-UT-1; 3.18E−05 microM): 98.4%
